#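 Results reflect a 48-hour exposure of cells in 96-well plates to compound at five concentrations. GI50 is the concentration that inhibits growth by half.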 The source made the active and inactive calls. Cut-off read from the data, not from the text of the source: active = GI50 up to about 1.1 µM and inactive = higher.
# Columns and labels:
# Experiment in all cases: inhibition of tumour cell growth, NCI panel, 48 h
# LXFL 529 = tested on: LXFL 529
# MOLT-4 = tested on: MOLT-4
# NCI-H23 = tested on: NCI-H23
# SR = tested on: SR
# DLD-1 = tested on: DLD-1
# DMS-114 = tested on: DMS-114
# HOP-18 = tested on: HOP-18
# TK-10 = tested on: TK-10
# KM-20L2 = tested on: KM-20L2
# SNB-78 = tested on: SNB-78
# NCI-H460 = tested on: NCI-H460
# EKVX = tested on: EKVX
# SF-295 = tested on: SF-295
# A549 = tested on: A549
# M19-MEL = tested on: M19-MEL
# CAKI-1 = tested on: CAKI-1
# KM12 = tested on: KM12
# RXF 631 = tested on: RXF 631
# Hs-578T = tested on: Hs-578T
# BT-549 = tested on: BT-549
# DMS-273 = tested on: DMS-273
# NCI-H226 = tested on: NCI-H226
# COLO 205 = tested on: COLO 205
# U-251 = tested on: U-251
# UACC-62 = tested on: UACC-62
# SF-539 = tested on: SF-539
# OVCAR-8 = tested on: OVCAR-8
# CCRF-CEM = tested on: CCRF-CEM
# SK-MEL-5 = tested on: SK-MEL-5
# PC-3 = tested on: PC-3
# Malme-3M = tested on: Malme-3M
# OVCAR-5 = tested on: OVCAR-5
# DU-145 = tested on: DU-145
# SK-MEL-2 = tested on: SK-MEL-2
# RPMI-8226 = tested on: RPMI-8226
# SK-MEL-28 = tested on: SK-MEL-28
# 786-0 = tested on: 786-0
# K562 = tested on: K562
# RXF 393 = tested on: RXF 393
# UO-31 = tested on: UO-31
# OVCAR-3 = tested on: OVCAR-3
# T47D = tested on: T47D
# MDA-N = tested on: MDA-N
# SNB-75 = tested on: SNB-75
# HL-60 = tested on: HL-60
# MDA-MB-435 = tested on: MDA-MB-435
# XF498 = tested on: XF498
# SK-OV-3 = tested on: SK-OV-3
# SNB-19 = tested on: SNB-19
# IGROV-1 = tested on: IGROV-1
# HCC 2998 = tested on: HCC 2998
# UACC-257 = tested on: UACC-257
# LOX IMVI = tested on: LOX IMVI
# HOP-92 = tested on: HOP-92
# A498 = tested on: A498
# SW-620 = tested on: SW-620
# MDA-MB-231 = tested on: MDA-MB-231
# HOP-62 = tested on: HOP-62
# HT-29 = tested on: HT-29
# HCT-116 = tested on: HCT-116
# MCF7 = tested on: MCF7
# SN12C = tested on: SN12C
# OVCAR-4 = tested on: OVCAR-4
# M14 = tested on: M14
# NCI/ADR-RES = tested on: NCI/ADR-RES
# SF-268 = tested on: SF-268
# NCI-H522 = tested on: NCI-H522
# HCT-15 = tested on: HCT-15
# ACHN = tested on: ACHN
smiles,measurement,setting,value
O=C1c2c(O)cc(O)cc2OC(c2ccc(O)cc2O)C1O (centres undefined),GI50,LXFL 529,36.1 µM (inactive)
same,GI50,MOLT-4,28.6 µM (inactive)
same,GI50,NCI-H23,57.5 µM (inactive)
same,GI50,SR,25.7 µM (inactive)
same,GI50,DLD-1,50.9 µM (inactive)
same,GI50,DMS-114,32.5 µM (inactive)
same,GI50,HOP-18,31.8 µM (inactive)
same,GI50,TK-10,57.4 µM (inactive)
same,GI50,KM-20L2,54 µM (inactive)
same,GI50,SNB-78,42.1 µM (inactive)
same,GI50,NCI-H460,57.8 µM (inactive)
same,GI50,EKVX,60.8 µM (inactive)
same,GI50,SF-295,56.4 µM (inactive)
same,GI50,A549,79.6 µM (inactive)
same,GI50,M19-MEL,29.9 µM (inactive)
same,GI50,CAKI-1,59.3 µM (inactive)
same,GI50,KM12,60.4 µM (inactive)
same,GI50,RXF 631,40.5 µM (inactive)
CCCCCCCCCCCCCCCCSS(C)(=O)=O,GI50,Hs-578T,> 100 µM (inactive)
same,GI50,LXFL 529,8.75 µM (inactive)
same,GI50,MOLT-4,1.39 µM (inactive)
same,GI50,NCI-H23,42.8 µM (inactive)
same,GI50,BT-549,4.42 µM (inactive)
same,GI50,SR,4.65 µM (inactive)
same,GI50,DMS-273,27 µM (inactive)
same,GI50,NCI-H226,> 27.6 µM (inactive)
same,GI50,COLO 205,19.2 µM (inactive)
same,GI50,U-251,55 µM (inactive)
same,GI50,UACC-62,22.4 µM (inactive)
same,GI50,SF-539,17.9 µM (inactive)
same,GI50,OVCAR-8,29.4 µM (inactive)
same,GI50,DLD-1,11.6 µM (inactive)
same,GI50,CCRF-CEM,3.03 µM (inactive)
same,GI50,SK-MEL-5,32.8 µM (inactive)
same,GI50,PC-3,> 100 µM (inactive)
same,GI50,Malme-3M,7.45 µM (inactive)
same,GI50,OVCAR-5,> 91 µM (inactive)
same,GI50,DU-145,> 100 µM (inactive)
same,GI50,SK-MEL-2,5.81 µM (inactive)
same,GI50,RPMI-8226,5 µM (inactive)
same,GI50,SK-MEL-28,11.9 µM (inactive)
same,GI50,786-0,7.06 µM (inactive)
same,GI50,K562,9.64 µM (inactive)
same,GI50,RXF 393,5.43 µM (inactive)
same,GI50,UO-31,20.8 µM (inactive)
same,GI50,HOP-18,58.7 µM (inactive)
same,GI50,OVCAR-3,10.9 µM (inactive)
same,GI50,T47D,8.97 µM (inactive)
same,GI50,TK-10,24.1 µM (inactive)
same,GI50,MDA-N,14.8 µM (inactive)
same,GI50,SNB-75,14.6 µM (inactive)
same,GI50,KM-20L2,37.6 µM (inactive)
same,GI50,NCI-H460,> 61.2 µM (inactive)
same,GI50,EKVX,> 91.2 µM (inactive)
same,GI50,HL-60,4.07 µM (inactive)
same,GI50,MDA-MB-435,> 100 µM (inactive)
same,GI50,XF498,6.1 µM (inactive)
same,GI50,SK-OV-3,97.9 µM (inactive)
same,GI50,SF-295,> 100 µM (inactive)
same,GI50,SNB-19,> 100 µM (inactive)
same,GI50,IGROV-1,32.4 µM (inactive)
same,GI50,HCC 2998,> 53.6 µM (inactive)
same,GI50,UACC-257,42.2 µM (inactive)
same,GI50,A549,> 65.3 µM (inactive)
same,GI50,LOX IMVI,3.73 µM (inactive)
same,GI50,HOP-92,15.5 µM (inactive)
same,GI50,A498,52.4 µM (inactive)
same,GI50,SW-620,5.21 µM (inactive)
same,GI50,MDA-MB-231,> 100 µM (inactive)
same,GI50,HOP-62,> 100 µM (inactive)
same,GI50,HT-29,25.2 µM (inactive)
same,GI50,CAKI-1,10.1 µM (inactive)
same,GI50,HCT-116,10.6 µM (inactive)
same,GI50,MCF7,27.6 µM (inactive)
same,GI50,SN12C,37.8 µM (inactive)
same,GI50,OVCAR-4,18.7 µM (inactive)
same,GI50,M14,9.42 µM (inactive)
same,GI50,NCI/ADR-RES,2.33 µM (inactive)
same,GI50,KM12,> 100 µM (inactive)
same,GI50,SF-268,10.7 µM (inactive)
same,GI50,NCI-H522,4.48 µM (inactive)
same,GI50,HCT-15,11 µM
same,GI50,RXF 631,16.3 µM (inactive)
same,GI50,ACHN,13.4 µM (inactive)
CCOC(=O)C=C1CCC2(CC1)OCCO2,GI50,LXFL 529,> 100 µM (inactive)
same,GI50,MOLT-4,> 100 µM (inactive)
same,GI50,NCI-H23,> 100 µM (inactive)
same,GI50,SR,> 100 µM (inactive)
same,GI50,NCI-H226,> 100 µM (inactive)
same,GI50,COLO 205,> 100 µM (inactive)
same,GI50,U-251,> 100 µM (inactive)
same,GI50,UACC-62,> 100 µM (inactive)
same,GI50,SF-539,> 100 µM (inactive)
same,GI50,OVCAR-8,> 100 µM (inactive)
same,GI50,DLD-1,> 100 µM (inactive)
same,GI50,CCRF-CEM,> 100 µM (inactive)
same,GI50,SK-MEL-5,> 100 µM (inactive)
same,GI50,Malme-3M,> 100 µM (inactive)
same,GI50,OVCAR-5,> 100 µM (inactive)
same,GI50,DU-145,> 100 µM (inactive)
same,GI50,SK-MEL-2,> 100 µM (inactive)
same,GI50,RPMI-8226,> 100 µM (inactive)
same,GI50,SK-MEL-28,> 100 µM (inactive)
same,GI50,786-0,> 100 µM (inactive)
same,GI50,K562,> 100 µM (inactive)
same,GI50,RXF 393,> 100 µM (inactive)
same,GI50,UO-31,> 100 µM (inactive)
same,GI50,HOP-18,> 100 µM (inactive)
same,GI50,OVCAR-3,> 100 µM (inactive)
same,GI50,TK-10,> 100 µM (inactive)
same,GI50,SNB-75,> 100 µM (inactive)
same,GI50,KM-20L2,> 100 µM (inactive)
same,GI50,NCI-H460,> 100 µM (inactive)
same,GI50,HL-60,> 100 µM (inactive)
same,GI50,XF498,> 100 µM (inactive)
same,GI50,SK-OV-3,> 100 µM (inactive)
same,GI50,SF-295,> 100 µM (inactive)
same,GI50,SNB-19,> 100 µM (inactive)
same,GI50,IGROV-1,> 100 µM (inactive)
same,GI50,HCC 2998,> 100 µM (inactive)
same,GI50,UACC-257,> 100 µM (inactive)
same,GI50,A549,> 100 µM (inactive)
same,GI50,LOX IMVI,> 100 µM (inactive)
same,GI50,HOP-92,> 100 µM (inactive)
same,GI50,A498,> 100 µM (inactive)
same,GI50,SW-620,> 100 µM (inactive)
same,GI50,M19-MEL,> 100 µM (inactive)
same,GI50,HT-29,> 100 µM (inactive)
same,GI50,CAKI-1,> 100 µM (inactive)
same,GI50,HCT-116,> 100 µM (inactive)
same,GI50,SN12C,> 100 µM (inactive)
same,GI50,OVCAR-4,> 100 µM (inactive)
same,GI50,M14,> 100 µM (inactive)
same,GI50,KM12,> 100 µM (inactive)
same,GI50,SF-268,> 100 µM (inactive)
same,GI50,NCI-H522,> 100 µM (inactive)
same,GI50,HCT-15,> 100 µM
same,GI50,RXF 631,> 100 µM (inactive)
same,GI50,ACHN,> 100 µM (inactive)
